# Laboratory results taken from patent publication US12569557B2, “Targeting moDC to enhance vaccine efficacy on mucosal surface” (UNIVERSITY OF FLORIDA RESEARCH FOUNDATION, INCORPORATED, priority 2018, dated 2026).
# “Also recorded” adds a separate entry of the source.
# Experiments:
# lung DCs = test: Lung DC / alveolar macrophage maturation (CD86, CCR7) after intranasal CDG, flow cytometry; assay type: in vivo, mice
# RelA, RelB, TBK1 = test: pRelA, pRelB and p-TBK1 in lung DC subsets after intranasal CDG, flow cytometry; assay type: in vivo, mice
# lung TNF [1] = test: Detection of lung cytokine production after intranasal CDG (ELISA of lung homogenates); assay type: in vivo, mice
# Procedure: Mice were intranasally administered 5 μg CDG, then sacrificed after 5 hrs by C02 asphyxiation^17. Lungs were perfused with cold PBS. The harvested lungs were washed with PBS once, then stored in 0.7 ml Tissue protein extraction reagent (T-PER) (Thermo Scientific, cat #78510) containing protease inhibitors (Roche, cat #11836153001) at −80° C. Later, the lung was thawed on ice and homogenized with Minilys® (Precellys, 5,000 RPM for 30 sec) using Precellys lysing kit (Precellys, cat #KT03961). Lung homogenates were transferred to a 1.5 ml tube and spun at 14,000 g for 30 min at 4° C. The supernatant was collected and analyzed for TNF production by ELISA (eBioscience, cat #88-7324).
# anti-PspA IgG and IgA = test: Intranasal CDG/PspA immunization: PspA-specific antibodies in serum and BALF by ELISA; assay type: in vivo, mice
# Procedure: (§1) Groups of mice (4 per group) were intranasally vaccinated with CDG (5 μg, Invivogen, cat #vac-cdg) adjuvanted PspA (2 μg, BEI Resources) or PspA alone^17. Mice were immunized twice at 14 days interval. For intranasal vaccination, animals were anesthetized using isoflurane in an E-Z Anesthesia system (Euthanex Corp, Palmer, Pa.). PspA, with or without CDG was administered in 20 μl saline. Sera were collected 14 days after the last immunization. The PspA-specific Abs were determined by ELISA. Secondary Abs used were anti-mouse IgG1-HRP (Southern Biotech, cat #1070-05), anti-mouse IgG2C-HRP (Southern Biotech, cat #1079-05), and anti-mouse IgA-HRP (Southern Biotech, cat #1040-05). To determine Ag-specific Th response, splenocytes from PspA or CDG+PspA immunized mice were stimulated with 5 μg/ml PspA for four days in culture. Th1, Th2, and Th17 cytokines were measured in the supernatant by ELISA.
# [2] = test system: PspA-specific Th1, Th2, Th17 responses; test: Ex vivo recall of PspA-specific Th responses in lung cells and splenocytes of immunized mice; settings: immunized IRF4fl/flCD11ccre mice
# Procedure: as §1
# TNFR2 = assay type: in vivo, mice
# mTNF = test: Cell surface mTNF expression on lung DCs detected with TNFR2-Fc recombinant protein; assay type: in vivo; settings: WT mice, i.n. CDG 16 hours
# Procedure: We intranasally administered CDG to WT mice for 16 hours and detected cell surface mTNF expression using […] recombinant protein (FIG. 8A).
# The following Abs from Biolegend were used in the flow cytometry: CD80 (16-10A1), CD86 (GL1), CD11B (M1/70), CD11C (N418), FcεRIa (MAR-1), MHC II (M5/114.15.2), CD103(2E7), CD24 (m1/69), CD64 (x54-5/7.1), CCR7 (4B12), TNF (MP6-XT22), TNFR2 (TR75-89), PD-L1 (10F.9G2), BTLA (8F4), PD-L2 (TY25), CD301b (URA-1), CX3CR1 (SA011F11), CD172a (P84), CD44 (IM7). The following Abs were from Cell Signaling: p-TBK1 (ser172, d52c2), p-RelB (ser552, d41b9), p-RelA (ser536, cat #4887S). The following reagents were from Sino Biological: TNFR2 Ab (cat #50128-R112-A), TNFR2-Fc (mouse TNFR2 extracellular domain, Met 1-Gly 258, was fused with the Fc region of human IgG1 at the C-terminus, cat #50128-M02H), human IgG1 Fc (cat #10702-HNAH). Alexa Fluor®488 mouse anti-human IgG1 Fc was from Invitrogen (cat #A-10631). FITC-CDG (2′-Fluo-AHC-CDG) was from Biolog (cat #F009). Cell sorting was performed on the BD FACSAriaIII Flow Cytometer and Cell Sorter. After sorting, dendritic cells were CFSE labeled, according to the protocol from the manufacturer (Invitrogen).
# moDCs = test: Antigen presentation by lung moDCs after intranasal CDG and Eα-OVA (YAE mAb); assay type: in vivo, C57BL/6 mice; settings: CDG and Eα-OVA i.n.
# Text: How does non-migratory moDCs (FIGS. 1D & 12B)^25,33 promote CDG-induced antibody responses? moDCs were efficient at antigen processing (FIG. 8D). We first asked if they presented antigen on cell surface. We intranasally administered C57BL/6 mice with CDG and Eα-OVA, and detected I-A^b/Eα^+ cells with the YAE mAb. Indeed, CDG increased YAE^+ moDCs in vivo (FIG. 9A).
# lung TNF [3] = settings: administered intranasally; cited from earlier work
# [4] = cited from earlier work
# [5] = test system: H5N1 influenza, Acinetobacter baumannii, Staphylococcus aureus, Klebsiella pneumoniae and Streptococcus pneumoniae; settings: cited from earlier work
compound,measurement,setting,value
"Nc1nc2c(ncn2[C@@H]2O[C@@H]3COP(=O)(O)O[C@H]4[C@@H](O)[C@H](n5cnc6c(=O)[nH]c(N)nc65)O[C@@H]4COP(=O)(O)O[C@H]3[C@H]2O)c(=O)[nH]1 [CDG, cyclic di-GMP]",CD86 on lung moDCs,lung DCs; Batf3−/− mice,unaltered
same,CD86 on lung moDCs,lung DCs; IRF4fl/flCD11ccre mice,failed to upregulate CD86
same,Activation of lung DCs (CD86),lung DCs; MPYSfl/flLysMcre mice,unaltered
same,CD86 expression on moDCs,lung DCs; MPYSfl/flLysMcre mice,normal levels of CD86 expression
same,CD86 on lung cDC1,lung DCs; RelBfl/flCD11ccre mice,upregulated CD86
same,CD86 on lung cDC2,lung DCs; RelBfl/flCD11ccre mice,failed to upregulate CD86
same,CD86 on lung moDCs,lung DCs; RelBfl/flCD11ccre mice,induced
same,CD86 and CCR7 expression on cDC1,lung DCs; TNFR2−/− mice,induced
same,CD86 on lung moDCs,lung DCs; TNFR2−/− mice,did not upregulate CD86
same,CD86 or CCR7 expression in lung cDC2,lung DCs; TNFR2−/− mice,did not enhance
same,CD86 expression on alveolar macrophages,"lung DCs; WT mice, CDG treatment i.n.",did not increase expression of CD86
same,CCR7 expression on lung moDCs,"lung DCs; WT mice, i.n. CDG",did not increase CCR7
same,CD86 and CCR7 expression in lung cDC1 and cDC2,"lung DCs; WT mice, i.n. CDG",increased
same,CD86 expression on lung moDCs,"lung DCs; WT mice, i.n. CDG",increased expression of CD86
same,Migration of activated moDCs to lung draining lymph nodes,"lung DCs; WT mice, i.n. CDG",did not migrate to dLNs
same,TBK1 activation (p-TBK1) in cDC2,"RelA, RelB, TBK1; TNFR2−/− mice",activated
same,RelA activation in lung cDC1,"RelA, RelB, TBK1; i.n. CDG",activated RelA
same,RelA and RelB activation in lung moDCs,"RelA, RelB, TBK1; i.n. CDG",activated both RelA and RelB
same,RelB activation in lung cDC2,"RelA, RelB, TBK1; i.n. CDG",activated RelB; also recorded: further activate RelB
same,CDG-induced lung MCP-1 production,lung TNF [1]; Batf3−/− mice (lack cDC1),largely absent
same,"CDG-induced lung production of TNF, IL-1β and IL-12p70",lung TNF [1]; IRF4fl/flCD11ccre mice (lack cDC2),dramatically reduced
same,CDG-induced lung TNF production,lung TNF [1]; TBK1fl/flVavCre mice,dramatically reduced
same,Lung TNF,lung TNF [1]; TNFR2−/− mice,induced
same,Anti-PspA Abs in BALF and serum,"anti-PspA IgG and IgA; IRF4fl/flCD11ccre mice, PspA with CDG i.n.",did not induce
same,Humoral and cellular immune responses,anti-PspA IgG and IgA; TNFR1−/− mice,reduced humoral and cellular immune responses
same,Adjuvant activity (humoral and cellular responses),anti-PspA IgG and IgA; TNFR2−/− mice,completely lost its adjuvant activity
same,"PspA-specific Th1, Th2, Th17 responses, ex vivo recall in lung cells and splenocytes",[2],"did not show PspA-specific Th1, Th2 or Th17 responses"
same,TNFR2 expression on moDCs,TNFR2; WT mice,induced
same,TNFR2 expression on lung cDC1,"TNFR2; WT mice, i.n. CDG 16 hrs",dramatically increased
same,PD-L1 expression on transferred TNFR2+ and TNFR2− cDC2,"TNFR2; cDC2 subsets transferred into MPYS−/− mice, CDG i.n. 16 hrs",did not affect
same,mTNF expression on TNFR2+ cDC2,mTNF,expressed little mTNF
same,mTNF expression on TNFR2− cDC2,mTNF,main mTNF^+ cDC2 cells
same,YAE+ moDCs (I-Ab/Eα presentation),moDCs,increased
same,"Lung production of TNF, IL-1β and IL-10",lung TNF [3],induced
same,Over-inflammatory responses in the lung,[4]; intranasal adjuvant,does not induce over-inflammatory responses
same,Acute toxicity as a mucosal adjuvant,[4]; mice,does not cause acute toxicity
same,Adjuvant activity / response in MPYS−/− mice,[5]; MPYS−/− mice,do not respond
same,Cancer vaccine adjuvant activity,[5]; animal models,showed cancer vaccine adjuvant activity
same,"Activation of Th1 and Th2 immune response vs LPS, CpG ODN or aluminum salt based adjuvant",[5]; mice,more potent activator
